Results from ChEMBL document CHEMBL1136498, “Ureas of 5-aminopyrazole and 2-aminothiazole inhibit growth of gram-positive bacteria” (Bioorg Med Chem Lett, 2003).
In brackets after ≈: the same amount, converted by molar mass. Activity calls are given as the source filed them. The calls are words filed in the database; no cut-off is given here.

What was measured:
Staphylococcus aureus [1] = assay: Concentration that inhibits 50% growth of methicillin resistant Staphylococcus aureus in the microdilution wells; type: functional, organism-based
Mus musculus [2] = assay: In vivo efficacy versus methicillin resistant Staphylococcus aureus in mice administered sc at 2mg/kg, expressed as percent survival; type: functional
Mus musculus [3] = assay: In vivo efficacy versus methicillin resistant Staphylococcus aureus in mice administered sc at 20 mg/kg, expressed as percent survival; type: functional; details: route subcutaneous
Staphylococcus aureus [4] = assay: Minimal inhibitory concentration for Staphylococcus aureus bacteria (ATCC 9604 SV) was determined by broth microdilution methodology; type: functional
Mus musculus [5] = assay: In vivo efficacy versus methicillin resistant Staphylococcus aureus in mice administered sc at 2x20mg/kg, expressed as percent survival; type: functional
Mus musculus [6] = assay: In vivo efficacy versus methicillin resistant Staphylococcus aureus in mice administered sc at 2x2mg/kg, expressed as percent survival; type: functional
Staphylococcus aureus [7] = assay: Concentration that inhibits 50% growth of methicillin resistant Staphylococcus aureus in the microdilution wells; IA=Inactive; type: functional, organism-based
Staphylococcus aureus [8] = assay: Minimal inhibitory concentration for Staphylococcus aureus bacteria (ATCC 9604 SV) was determined by broth microdilution methodology; IA=Inactive; type: functional, organism-based

Row | Structure (SMILES) | IC50 (Staphylococcus aureus [1]) | MIC (Staphylococcus aureus [4]) | also measured
1 | O=C(Nc1cccc(Br)c1)Nc1nc(-c2ccc(Br)cc2)cs1 | 543 nM |  | 
2 | O=C(Nc1cc(C(F)(F)F)cc(C(F)(F)F)c1)Nc1c(-c2ccccc2)cnn1-c1ccc(C(F)(F)F)cc1 | 330 nM |  | survival at 2 mg/kg (Mus musculus [2]): 0%; survival at 20 mg/kg (Mus musculus [3]): 0%
3 | Cc1cc(C)cc(NC(=O)Nc2nc(-c3ccc(Cl)cc3)cs2)c1 | > 5000 nM |  | 
4 | O=C(Nc1ccc(SC(F)(F)F)cc1)Nc1nc(-c2ccc(F)c(F)c2)cs1 | 134 nM | < 0.647 µg/mL | 
5 | O=C(Nc1cc(C(F)(F)F)cc(C(F)(F)F)c1)Nc1nc(-c2ccc(Br)cc2)cs1 | 133 nM |  | 
6 | O=C(Nc1nc(-c2ccc(Cl)cc2)cs1)Nc1ccc(Br)cc1C(F)(F)F | 4710 nM |  | 
7 | O=C(Nc1cc(Cl)cc(Cl)c1)Nc1cc(-c2ccccc2)nn1-c1ccc(Cl)cc1 | 148 nM | > 22.9 µg/mL | survival at 2 mg/kg (Mus musculus [2]): 25%; survival at 20 mg/kg (Mus musculus [3]): 25%
8 | O=C(Nc1ccc(Cl)c(C(F)(F)F)c1)Nc1cc(-c2ccccc2)nn1-c1ccc(C(F)(F)F)cc1 | 96 nM | < 0.787 µg/mL | 
9 | O=C(Nc1cc(C(F)(F)F)cc(C(F)(F)F)c1)Nc1cc(-c2ccncc2)nn1-c1ccc(C(F)(F)F)cc1 | 214 nM | 1.68 µg/mL (≈ 3 µM) | Survival (Mus musculus [5]): 17%; survival at 2 mg/kg (Mus musculus [2]): 25%; survival at 20 mg/kg (Mus musculus [3]): 25%; Survival (Mus musculus [6]): 0%
10 | COc1cc(NC(=O)Nc2nc(-c3ccc(Cl)cc3)cs2)cc(OC)c1 | > 5000 nM |  | 
11 | Cc1cc(C)cc(NC(=O)Nc2cc(-c3ccccc3)nn2-c2ccc(C(F)(F)F)cc2)c1 |  |  | IC50 (Staphylococcus aureus [7]): Not Active; MIC (Staphylococcus aureus [8]): inactive
12 | Cc1ccccc1NC(=O)Nc1cc(-c2ccccc2)nn1-c1ccc(C(F)(F)F)cc1 |  |  | IC50 (Staphylococcus aureus [7]): Not Active; MIC (Staphylococcus aureus [8]): inactive
13 | O=C(Nc1cc(C(F)(F)F)cc(C(F)(F)F)c1)Nc1nc(CCCO)cs1 | 2070 nM |  | 
14 | CC(C)(C)c1csc(NC(=O)NCc2cccc(Cl)c2)n1 |  | 8.1 µg/mL (≈ 25 µM) | Survival (Mus musculus [5]): 50%; Survival (Mus musculus [6]): 25%
15 | O=C(Nc1cc(Cl)cc(Cl)c1)Nc1cc(-c2ccccc2)nn1-c1ccc(C(F)(F)F)cc1 | 81 nM | 12.3 µg/mL (≈ 25 µM) | survival at 2 mg/kg (Mus musculus [2]): 0%; survival at 20 mg/kg (Mus musculus [3]): 12.5%
16 | O=C(Nc1cc(C(F)(F)F)cc(C(F)(F)F)c1)Nc1nc(CCc2ccccc2)cs1 | 367 nM | 23 µg/mL (≈ 50.1 µM) | 
17 | COc1ccc(-c2csc(NC(=O)Nc3cc(C(F)(F)F)cc(C(F)(F)F)c3)n2)c(OC)c1 | > 5000 nM |  | 
18 | O=C(Nc1cc(C(F)(F)F)cc(C(F)(F)F)c1)Nc1cc(-c2ccccc2)nn1-c1ccc(C(F)(F)F)cc1 | 54 nM | < 0.838 µg/mL | survival at 2 mg/kg (Mus musculus [2]): 0%; survival at 20 mg/kg (Mus musculus [3]): 0%

Row | Structure (SMILES) | IC50 (Staphylococcus aureus [1]) | MIC (Staphylococcus aureus [4]) | also measured
19 | O=C(Nc1ccccc1-c1ccccc1)Nc1cc(-c2ccccc2)nn1-c1ccc(C(F)(F)F)cc1 |  |  | IC50 (Staphylococcus aureus [7]): Not Active; MIC (Staphylococcus aureus [8]): inactive
20 | O=C(Nc1ccc(F)c(C(F)(F)F)c1)Nc1nc(-c2ccc(F)c(F)c2)cs1 | 180 nM | < 0.626 µg/mL | survival at 2 mg/kg (Mus musculus [2]): 0%; survival at 20 mg/kg (Mus musculus [3]): 0%
21 | CN[C@H](CC(C)C)C(=O)N[C@H]1C(=O)N[C@@H](CC(N)=O)C(=O)N[C@H]2C(=O)N[C@H]3C(=O)N[C@H](C(=O)N[C@H](C(=O)O)c4cc(O)cc(O)c4-c4cc3ccc4O)[C@H](O)c3ccc(c(Cl)c3)Oc3cc2cc(c3O[C@@H]2O[C@H](CO)[C@@H](O)[C@H](O)[C@H]2O[C@H]2C[C@](C)(N)[C@H](O)[C@H](C)O2)Oc2ccc(cc2Cl)[C@H]1O [VANCOMYCIN] | 839 nM | 0.75 µg/mL (≈ 0.518 µM) | Survival (Mus musculus [5]): 100%; Survival (Mus musculus [6]): 25%
22 | O=C(Nc1cc(Cl)cc(Cl)c1)Nc1cc(-c2cccs2)nn1-c1ccc(Br)cc1 | 71 nM | 0.847 µg/mL (≈ 1.67 µM) | survival at 2 mg/kg (Mus musculus [2]): 0%; survival at 20 mg/kg (Mus musculus [3]): 25%
23 | O=C(Nc1cc(C(F)(F)F)cc(C(F)(F)F)c1)Nc1cc(CO)nn1-c1ccc(Br)cc1 | 4240 nM | 6.54 µg/mL (≈ 12.5 µM) | Survival (Mus musculus [5]): 33%; Survival (Mus musculus [6]): 33%
24 | O=C(Nc1nc(-c2ccc(Cl)cc2)cs1)Nc1c(Cl)cc(Cl)cc1Cl | 927 nM |  | 
25 | O=C(Nc1cc(C(F)(F)F)cc(C(F)(F)F)c1)Nc1nc(-c2cccs2)cs1 | 259 nM | 1.31 µg/mL (≈ 3 µM) | 
26 | O=C(NCc1ccc(Cl)c(Cl)c1)Nc1nc(-c2ccc(Br)cc2)cs1 |  | 11.4 µg/mL (≈ 24.9 µM) | 
27 | Cc1sc(NC(=O)Nc2cc(C(F)(F)F)cc(C(F)(F)F)c2)nc1-c1ccc(Br)cc1 | 838 nM |  | 
28 | CC(C)(C)c1cc(NC(=O)Nc2cc(Cl)cc(Cl)c2)n(-c2ccc(Br)cc2)n1 | 132 nM | < 0.723 µg/mL | survival at 2 mg/kg (Mus musculus [2]): 0%; survival at 20 mg/kg (Mus musculus [3]): 0%
29 | CCOC(=O)c1cnn(-c2ccc(Br)cc2)c1NC(=O)Nc1cc(C(F)(F)F)cc(C(F)(F)F)c1 | 261 nM | < 0.848 µg/mL | 
30 | COCCN(CCOC)Cc1cc(NC(=O)Nc2cc(C(F)(F)F)cc(C(F)(F)F)c2)n(-c2ccc(Br)cc2)n1 | 1560 nM | 16 µg/mL (≈ 25.1 µM) | Survival (Mus musculus [5]): 33%; survival at 2 mg/kg (Mus musculus [2]): 25%; survival at 20 mg/kg (Mus musculus [3]): 25%; Survival (Mus musculus [6]): 0%
31 | O=C(NCc1cccc(Cl)c1)Nc1nc(C2CCCC2)cs1 |  | 8.4 µg/mL (≈ 25 µM) | Survival (Mus musculus [5]): 25%; Survival (Mus musculus [6]): 25%
32 | O=C(Nc1ccc(C(F)(F)F)cc1Cl)Nc1cc(-c2ccccc2)nn1-c1ccc(C(F)(F)F)cc1 |  |  | IC50 (Staphylococcus aureus [7]): Not Active; MIC (Staphylococcus aureus [8]): inactive
33 | Cc1cc(NC(=O)Nc2cc(C(F)(F)F)cc(C(F)(F)F)c2)n(-c2ccc(Br)cc2)n1 | 268 nM | < 0.761 µg/mL | 
34 | COc1ccc(OC)c(-c2csc(NC(=O)Nc3cc(C(F)(F)F)cc(C(F)(F)F)c3)n2)c1 | > 5000 nM |  | 
35 | CCOC(=O)c1cc(NC(=O)Nc2cc(C(F)(F)F)cc(C(F)(F)F)c2)n(-c2ccc(Br)cc2)n1 | 3100 nM | > 14.1 µg/mL | Survival (Mus musculus [5]): 33%; Survival (Mus musculus [6]): 0%
